Test results as given in patent US10975037B2 (priority 2018, dated 2021).
Read-outs that look alike come from different tables or passages of the source. Marks after values point to notes of the source that are not given here.

Tests used:
[1] = target: human RORγt ligand binding domain (RORγt LBD) (Homo sapiens (Human), UniProt P51449); assay: RORγt ThermoFluor® assay (thermal shift binding)
Procedure: This approach is applicable to a wide variety of systems, and rigorous in theoretical interpretation through quantitation of equilibrium binding constants (KD).
The shift in the melting point described as a ΔTm is proportional to the concentration and affinity of the ligand.
RORγt ThermoFluor® Assay Construct
Reference wells contained RORγt without compounds, and the assay conditions were as follows: • 0.065 mg/mL RORγt • 60 μM 1,8-ANS • 100 mM Hepes, pH 7.0 • 10 mM NaCl • 2.5 mM GSH • 0.002% Tween-20
Project compounds were arranged in a pre-dosed mother plate (Greiner Bio-one) wherein compounds are serially diluted in 100% DMSO by 1:2 from a high concentration of 10 mM over 12 columns within a series (column 12 is a reference well containing DMSO, no compound). The compounds were robotically dispensed directly into assay plates (1×=46 nL) using a Hummingbird capillary liquid handling instrument (Digilab). Following compound dispense, protein and dye in buffer was added to achieve the final assay volume of 3 μL, followed by 1 μL of silicone oil.

[2] = target: full-length human RORγt (Homo sapiens (Human), UniProt P51449); assay: RORγt (full-length human) reporter assay, conditions A or B, HEK293T cells; assay type: cell-based; conditions: for inhibition at 2 µM: 2 μM compound concentration; for inhibition at 2 µM / inhibition at 0.67 µM / inhibition at 3 µM: read-out: RORγt (FL) Reporter Assay A or B, % inhibition
Procedure: RORγt (Full-Length Human) Reporter Assay:
(§1) HEK293T cells were plated at 35,000 per well in 96-well plate in medium of DMEM with 10% FBS. […] After overnight (16 to 20 hours) incubation, media were removed and cells were lysed with 50 L Glo Lysis Buffer (Promega) for 10-15 minutes followed by 10 minute incubation with 50 μL Dual Glo reagent (Promega) at room temperature. Firefly luciferase luminescence was measured using a BMG Pherastar plate reader. To each well, 50 μL Stop and Glo reagent was added and incubated for 10 minutes at room temperature. Renilla luminescence was measured using a BMG Pherastar plate reader. To calculate the effect of compounds on RORγt activity, firefly values were normalized against values of DMSO only and values of reference compound at saturating concentration, then further normalized against Renilla signals. IC50s were generated by plotting final Renilla normalized data against compound concentration and percent inhibition was calculated against DMSO control.
as §1, with “at 8750 cells” for “at 35,000”, “in 384-well” for “in 96-well”, “with 20” for “with 50”, “well, 20” for “well, 50”

[3] = read-out: ThermoFluor® Assay, Kd
[4] = RORγt (FL) Reporter Assay A or B, IC50, HEK293T cells
[5] = HEK-293T, 0.67 μM compound concentration (footnote ****)

human RORγt ligand binding domain (RORγt LBD), sequence (P51449 other isoform, or with tags, fused parts or gaps): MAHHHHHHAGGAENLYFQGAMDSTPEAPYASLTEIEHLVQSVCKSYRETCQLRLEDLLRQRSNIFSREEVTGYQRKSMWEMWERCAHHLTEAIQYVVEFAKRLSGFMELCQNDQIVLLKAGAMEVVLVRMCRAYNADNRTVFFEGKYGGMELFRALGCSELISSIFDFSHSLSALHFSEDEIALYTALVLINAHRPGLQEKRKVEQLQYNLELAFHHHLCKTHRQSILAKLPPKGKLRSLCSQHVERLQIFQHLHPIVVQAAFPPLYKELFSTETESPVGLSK
full-length human RORγt, sequence (P51449 other isoform, or with tags, fused parts or gaps): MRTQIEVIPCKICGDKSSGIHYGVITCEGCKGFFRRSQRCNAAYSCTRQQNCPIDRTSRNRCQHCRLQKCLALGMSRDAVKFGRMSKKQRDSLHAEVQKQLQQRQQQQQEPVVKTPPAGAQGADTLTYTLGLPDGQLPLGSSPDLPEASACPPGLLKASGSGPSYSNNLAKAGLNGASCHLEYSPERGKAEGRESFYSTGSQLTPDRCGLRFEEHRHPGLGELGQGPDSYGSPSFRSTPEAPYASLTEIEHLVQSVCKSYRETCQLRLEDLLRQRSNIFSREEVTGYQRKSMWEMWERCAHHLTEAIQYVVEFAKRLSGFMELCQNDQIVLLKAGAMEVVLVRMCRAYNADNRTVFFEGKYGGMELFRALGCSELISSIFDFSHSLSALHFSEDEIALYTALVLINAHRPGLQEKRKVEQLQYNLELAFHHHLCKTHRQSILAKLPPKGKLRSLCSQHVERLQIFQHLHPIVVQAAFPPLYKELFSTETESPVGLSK

SMILES	Kd [1, 3]	inhibition at 2 µM ([2]; HEK-293T)	IC50 [2, 4]	further results
CCn1nc(C(=O)NC[C@]2(O)CC[C@@H](S(C)(=O)=O)CC2)c(Cl)c1-c1ccc(N[C@H](C)C(F)(F)F)cc1OC [Example 24, 4-Chloro-1-ethyl-N-(((1s,4S)-1-hydroxy-4-(methylsulfonyl)cyclohexyl)methyl)-5-(2-methoxy-4-(((R)-1,1,1-trifluoropropan-2-yl)amino)phenyl)-1H-pyrazole-3-carboxamide]	21 nM	104%	52 nM	
CCn1nc(C(=O)NC[C@H]2CC[C@H](S(C)(=O)=O)CC2)c(Cl)c1-c1ccc(OCC2(C)CC2)cc1OC [Example 215, 4-Chloro-1-ethyl-5-(2-methoxy-4-((1-methylcyclopropyl)methoxy)phenyl)-N-(((1r,4r)-4-(methylsulfonyl)cyclohexyl)methyl)-1H-pyrazole-3-carboxamide]	6.6 nM	80%	56 nM	
CCn1nc(C(=O)NC[C@]2(O)CC[C@@H](S(C)(=O)=O)CC2)c(Cl)c1-c1ccc(CCC(F)(F)F)cc1Cl [Example 173, 4-Chloro-5-(2-chloro-4-(3,3,3-trifluoropropyl)phenyl)-1-ethyl-N-(((1s,4s)-1-hydroxy-4-(methylsulfonyl)cyclohexyl)methyl)-1H-pyrazole-3-carboxamide]	12 nM		28 nM	inhibition at 0.67 µM ([2]; HEK-293T): 36%
COCCn1nc(C(=O)NC[C@H]2CC[C@H](S(C)(=O)=O)CC2)c(Cl)c1-c1ccc(CC(C)(C)C(F)(F)F)cc1OC(F)F [Example 148, 4-Chloro-5-(2-(difluoromethoxy)-4-(3,3,3-trifluoro-2,2-dimethylpropyl)phenyl)-1-(2-methoxyethyl)-N-(((1r,4r)-4-(methylsulfonyl)cyclohexyl)methyl)-1H-pyrazole-3-carboxamide]	0.16 nM		2 nM	inhibition at 0.67 µM [2, 5]: 91%
CCn1nc(C(=O)NC[C@]2(O)CC[C@@H](S(C)(=O)=O)CC2)c(Cl)c1-c1ccc(CCCC(F)(F)F)cc1OC [Example 81, 4-Chloro-1-ethyl-N-(((1s,4s)-1-hydroxy-4-(methylsulfonyl)cyclohexyl)methyl)-5-(2-methoxy-4-(4,4,4-trifluorobutyl)phenyl)-1H-pyrazole-3-carboxamide]	5.1 nM	89%	13 nM	
CCn1nc(C(=O)NC[C@]2(O)CC[C@@H](S(C)(=O)=O)CC2)c(Cl)c1-c1ccc(CC(C)(C)C(F)(F)F)cc1F [Example 178, 4-Chloro-1-ethyl-5-(2-fluoro-4-(3,3,3-trifluoro-2,2-dimethylpropyl)phenyl)-N-(((1s,4s)-1-hydroxy-4-(methylsulfonyl)cyclohexyl)methyl)-1H-pyrazole-3-carboxamide]	2.4 nM		30 nM	inhibition at 0.67 µM [2, 5]: 89%
CCn1nc(C(=O)NC[C@H]2CC[C@H](S(C)(=O)=O)CC2)c(Cl)c1-c1ccc(CCCC(F)(F)F)cc1OC [Example 80, 4-Chloro-1-ethyl-5-(2-methoxy-4-(4,4,4-trifluorobutyl)phenyl)-N-(((1r,4r)-4-(methylsulfonyl)cyclohexyl)methyl)-1H-pyrazole-3-carboxamide]	2.3 nM	89%	6 nM	
CCn1nc(C(=O)NC[C@]2(C(=O)O)CC[C@H](S(C)(=O)=O)CC2)c(Cl)c1-c1ccc(CC(C)(C)C(F)(F)F)cc1OC(F)F [Example 121, (1r*,4r*)-1-((4-Chloro-5-(2-(difluoromethoxy)-4-(3,3,3-trifluoro-2,2-dimethylpropyl)phenyl)-1-ethyl-1H-pyrazole-3-carboxamido)methyl)-4-(methylsulfonyl)cyclohexane-1-carboxylic Acid]			830 nM	Kd ([1]; ThermoFluor® Assay, Kd): 43 nM; inhibition at 6 µM ([2]; HEK-293T, read-out: RORγt (FL) Reporter Assay A or B, % inhibition @ 6 μM, 6 μM compound concentration): 106%
COCCn1nc(C(=O)NC[C@]2(O)CC[C@@H](S(C)(=O)=O)CC2)c(Cl)c1-c1ccc(CC(C)(C)C(F)(F)F)cc1OC(F)F [Example 149, 4-Chloro-5-(2-(difluoromethoxy)-4-(3,3,3-trifluoro-2,2-dimethylpropyl)phenyl)-N-(((1s,4s)-1-hydroxy-4-(methylsulfonyl)cyclohexyl)methyl)-1-(2-methoxyethyl)-1H-pyrazole-3-carboxamide]	0.83 nM	99%	6 nM	
CCCn1nc(C(=O)NC[C@]2(O)CC[C@@H](S(C)(=O)=O)CC2)c(Cl)c1-c1ccc(C[C@H](C)C(F)(F)F)cc1OC (single isomer, unassigned) [Example 40, 4-Chloro-N-(((1s,4R)-1-hydroxy-4-(methylsulfonyl)cyclohexyl)methyl)-5-(2-methoxy-4-((S*)-3,3,3-trifluoro-2-methylpropyl)phenyl)-1-propyl-1H-pyrazole-3-carboxamide]		99%	13 nM	Kd ([1]; ThermoFluor® Assay, Kd): 0.71 nM
CCc1c(C(=O)NC[C@H]2CC[C@H](S(C)(=O)=O)CC2)nn(CC)c1-c1ccc(N[C@H](C)C(F)(F)F)cc1OC [Example 130, 1,4-Diethyl-5-(2-methoxy-4-(((R)-1,1,1-trifluoropropan-2-yl)amino)phenyl)-N-(((r,4R)-4-(methylsulfonyl)cyclohexyl)methyl)-1H-pyrazole-3-carboxamide]	9.9 nM	100%	61 nM	
CCn1nc(C(=O)NC[C@]2(O)CC[C@@H](S(C)(=O)=O)CC2)c(Cl)c1-c1ccc(C(=O)C(C)(C)C(F)(F)F)cc1OC(F)F [Example 105, 4-Chloro-5-(2-(difluoromethoxy)-4-(3,3,3-trifluoro-2,2-dimethylpropanoyl)phenyl)-1-ethyl-N-(((1s,4s)-1-hydroxy-4-(methylsulfonyl)cyclohexyl)methyl)-1H-pyrazole-3-carboxamide]	3.3 nM		13 nM	inhibition at 3 µM ([2]; HEK-293T): 28%
Cn1nc(C(=O)NC[C@@]2(O)CC[C@H](S(C)(=O)=O)C[C@@H]2O)c(Cl)c1-c1ccc(CC(C)(C)C(F)(F)F)cc1OC(F)F (relative stereo) [Example 153, 4-Chloro-5-(2-(difluoromethoxy)-4-(3,3,3-trifluoro-2,2-dimethylpropyl)phenyl)-N-(((1S*,2S*,4S*)-1,2-dihydroxy-4-(methylsulfonyl)cyclohexyl)methyl)-1-methyl-1H-pyrazole-3-carboxamide]			49 nM	Kd ([1]; ThermoFluor® Assay, Kd): 9 nM; inhibition at 3 µM ([2]; HEK-293T, 3 μM compound concentration (footnote *)): 85%
CCn1nc(C(=O)NC[C@]2(O)CC[C@@H](S(C)(=O)=O)CC2)c(C(F)(F)F)c1-c1ccc(N[C@H](C)C(F)(F)F)cc1OC [Example 217, 1-Ethyl-N-(((1s,4S)-1-hydroxy-4-(methylsulfonyl)cyclohexyl)methyl)-5-(2-methoxy-4-(((R)-1,1,1-trifluoropropan-2-yl)amino)phenyl)-4-(trifluoromethyl)-1H-pyrazole-3-carboxamide]	17 nM			RORγt (FL) Reporter Assay A or B, % inhibition ([2]; 1 μM compound concentration (footnote ***)): 104*** %; IC50 ([2]; HEK293T cells, read-out: RORγt (FL) Reporter Assay A or B, IC50): 13 nM
CCn1nc(C(=O)NC[C@H]2CC[C@H](S(C)(=O)=O)CC2)c(Cl)c1-c1ccc(N[C@H](C)C(F)(F)F)cc1Cl [Example 176, 4-Chloro-5-(2-chloro-4-(((R)-1,1,1-trifluoropropan-2-yl)amino)phenyl)-1-ethyl-N-(((1r,4R)-4-(methylsulfonyl)cyclohexyl)methyl)-1H-pyrazole-3-carboxamide]	3.8 nM		18 nM	inhibition at 0.67 µM [2, 5]: 102%
